Laboratory results from US5525523A, “Binding method for FK-506- and rapamycin-like drugs with a novel immunophilin” (Children's Research Institute, priority 1994, dated 1996).

How the values were obtained:
FKBP-14.6 [1] = assay: Saturation binding of [^3 H]-dihydro FK-506 (LH-20 assay, Scatchard and Hill plots); parameters: species or system calf; settings: for Kd: saturation, eight concentrations of labeled FK-506 (0.25-12 nM), read-out: Kd, single high affinity binding site
Description: (§1) Binding of [^3 H]-dihydro FK-506 to protein fractions was assessed using the LH-20 assay as described by Handschumacher et al., Science, 226:544 (1984). Briefly, in a final volume of 250 μl, labeled FK-506 (2-5.35 nM in EtOH) and 2-5 μg protein (200 μl) were preliminarily incubated, and the competition reaction begun by the addition of varying concentrations of unlabeled FK-506 or rapamycin. Following 20 minutes at room temperature, a 200 μl aliquot of the reaction mixture was filtered through a 1.8 mL bed-volume Sephadex LH-20 column equilibrated with 20 mM Tris buffer, pH 7.2, containing 5 mM 2-mercaptoethanol and 0.05 % NAN3. Elution with five 250 μL portions of the assay buffer separated protein-bound [^3 H]-dihydro FK-506 from free labeled drug (Sjovall et al., in Giddlings et al., Advances in Chromatography, Marcel Dekker, Inc., N.Y., vol. 6, pp. 119-170 (1968)). Radioactivity in the 1.25 mL eluate was measured by liquid scintillation spectrometry (Optima Gold Scintillation cocktail, Packard Chemicals, Meriden, Conn.) operating at 59% efficiency. Non-specific binding was estimated by the addition of 1 μM unlabeled FK-506, which displaced ≥95% of the bound radioligand from binding sites.
To obtain binding site information for the FKBP-14.6 protein, Scatchard plots were obtained in saturation experiments using eight concentrations of labeled FK-506 (0.25-12 nM) in triplicate (FIG. 4A). In FIG. 4A, specific binding is shown by (-.cndot.-.cndot.-) and non-specific binding by (- - -). Data were analyzed with the EBDA and Ligand Corporation programs.

FKBP-14.6 [2] = assay: Competition binding against [^3 H]-dihydro FK-506 (LH-20 assay); parameters: species or system calf; settings: for Kd: 6 nM [^3 H]-dihydro FK-506, rapamycin 0.1 nM-1 μM, 0.2% Tween-20, 50% receptor occupation
Description: as §1
To determine if rapamycin interacted with FK-506's binding site on FKBP-14.6, competition studies were carried out using 6 nM [^3 H]-dihydro FK-506 and 8 concentrations of rapamycin (0.1 nM-1 μM) in a buffer containing 0.2% Tween-20. Unlabeled FK-506 (1 μM) was used to define nonspecific binding.

Structure (SMILES): C=CC[C@@H]1/C=C(\C)C[C@H](C)C[C@H](OC)[C@H]2O[C@@](O)(C(=O)C(=O)N3CCCC[C@H]3C(=O)O[C@H](/C(C)=C/[C@@H]3CC[C@@H](O)[C@H](OC)C3)[C@H](C)[C@@H](O)CC1=O)[C@H](C)C[C@@H]2OC [FK-506]
- binding site Bmax (FKBP-14.6 [1]; Scatchard analysis, purified 14.6 kDa protein): about 67 nmoles/mg protein
- bound radioligand displaced from binding sites (FKBP-14.6 [2]; 1 μM unlabeled FK-506, 20 min): ≥ 95%

Structure (SMILES): CO[C@H]1C[C@@H]2CC[C@@H](C)[C@@](O)(O2)C(=O)C(=O)N2CCCC[C@H]2C(=O)O[C@H]([C@H](C)C[C@@H]2CC[C@@H](O)[C@H](OC)C2)CC(=O)[C@H](C)/C=C(\C)[C@@H](O)[C@@H](OC)C(=O)[C@H](C)C[C@H](C)/C=C/C=C/C=C/1C [Rapamycin]
- displacement of [^3 H]-dihydro FK-506 (manner) (FKBP-14.6 [2]; 6 nM [^3 H]-dihydro FK-506, 8 concentrations of rapamycin): biphasic manner
- Kd (FKBP-14.6 [2]; read-out: Kd, high affinity binding site): 0.023 nM
- Kd (FKBP-14.6 [2]; read-out: Kd, low affinity binding site): 226 nM

Structure (SMILES): CCC[C@@H]1/C=C(\C)C[C@H](C)C[C@H](OC)[C@H]2O[C@@](O)(C(=O)C(=O)N3CCCC[C@H]3C(=O)O[C@H](/C(C)=C/[C@@H]3CC[C@@H](O)[C@H](OC)C3)[C@H](C)[C@@H](O)CC1=O)[C@H](C)C[C@@H]2OC [[^3 H]-dihydro FK-506]
- Kd (FKBP-14.6 [1]; purified 14.6 kDa protein, listed as [^3 H]-FK-506): ~1.77 nM
- Kd (FKBP-14.6 [1]; purified 14.6 kDa protein): 1.77 nM

Structure (SMILES): [3H]CC([3H])C[C@@H]1/C=C(\C)C[C@H](C)C[C@H](OC)[C@H]2O[C@@](O)(C(=O)C(=O)N3CCCC[C@H]3C(=O)O[C@H](/C(C)=C/[C@@H]3CC[C@@H](O)[C@H](OC)C3)[C@H](C)[C@@H](O)CC1=O)[C@H](C)C[C@@H]2OC (some centres unmarked) [[^3 H]-dihydro FK-506]
- Hill coefficients (FKBP-14.6 [1]; saturation experiments, single class of binding sites): near unity
